Measured values reported in patent publication US8198279B2, “Pyrido[2,3-b]pyrazin-8-substituted compounds and their use” (Institute of Cancer Research: Royal Cancer Hospital (The), priority 2007, dated 2012).

Assays:
[1] = target: T1, B-RAF (Homo sapiens, UniProt P15056, V600E); test: DELFIA Kinase Assay; type: biochemical; details: 100 μM ATP, GST-MEK substrate
T1 construct: made in house
Method in brief: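 Recombinant B-RAF (V600E) with GST-MEK substrate was preincubated with compound for 10 min at room temperature, then reacted with 100 μM ATP for 45 min on milk-preblocked wells, with antibody detection by DELFIA europium fluorescence. Response is taken as % of DMSO control after empty-vector blank subtraction; IC50 is from a variable-slope sigmoidal fit, mean of usually three independent runs.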

[2] = system: pERK; test: Cell Based Phospho-ERK Assay; details: 6 h, 6 hours incubation with test compound
Description: Biological Methods—Cell Based Phosho-ERK Assay
Compounds were assessed using a cell-based assay which was performed according to the following protocol.
Plate out 16,000 cells/well in 99 μL medium in a 96-well plate.
• 1. Add 1 μL inhibitor to the cells (total […] solution). • 2. Incubate the cells with test compound for 6 hours at 37° C. • 3. Aspirate off the solution from all of the wells. • 4. Fixate the cells with 100 μL 4% formaldehyde/0.25% Triton X-100 PBS per well. • 5. Incubate the plate for 1 hour at 4° C. • 6. Aspirate off the fixing solution and add 300 μL TBS per well. • 7. Leave the plate overnight at 4° C. Day 2: • 1. Wash the plate 2× with 200 μL PBS per well. • 2. Block with 100 μL 5% dried milk in TBS. • 3. Incubate the plate for 20 minutes at 37° C. • 4. Wash the plate 2× with 0.1% tween/H2O. • 5. Add 50 μL of 3 μg/mL primary antibody pERK (Sigma M8159), diluted in 5% milk powder/TBS, to each well. • 6. Incubate the plate for 2 hours at 37° C. • 7. Wash the plate 3× with 0.1% tween/H2O. • 8. Add 50 μL of 0.45 μg/mL secondary Europium-labelled anti-mouse antibody (Perkin Elmer) to each well. • 9. Incubate the plate for 1 hour at 37° C. • 10. Wash the plate 3× with 0.1% tween/H2O. • 11. Add 100 μL enhancement solution (Perkin Elmer) to each well. • 12. Leave the plate for approximately 10 minutes at room temperature before gently shaking the plate. • 13. Read Europium Time Resolved Fluorescence in Victor2. • 14. Wash the plate 2× with 0.1% tween/H2O. • 15. Measure the protein concentration with BCA (Sigma) by adding 200 μL of solution per well. • 16. Incubate the plate for 30 minutes at 37° C. • 17. Read absorbance levels at 570 nm in a plate reader.
Note that Europium counts are normalised for protein levels by dividing counts by absorbance.
Values for the blank (no cells) are subtracted from all values. The DMSO controls are set as 100% activity and assay points (the response) are calculated as a percentage of the DMSO control. Data are plotted using Graphpad Prism software and a non-linear regression line is calculated using a variable slope sigmoidal dose-response equation (Y=Bottom+(Top−Bottom)/(1+10^((LogEC50−X)*HillSlope)) where X is the logarithm of concentration. Y is the response). The IC50 generated by this procedure is the concentration of the drug that produces a percentage control fluorescence value midway between the saturation, and zero-effect plateaus. Three independent assays are usually performed and the mean IC50 is reported.

[3] = system: WM266.4 melanoma cells; test: SRB Cell Proliferation Assay (SRB GI50); type: cell-based; details: Homo sapiens, WM 266-4, 144 h, 6 days growth
Method in brief: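 WM266.4 cells (1000/well) grown 6 days with compound at 100 μM to 0.005 μM (3-fold dilutions) in DMEM/10% FBS at 37 °C. Cells TCA-fixed, sulphorhodamine-B stained, A540 read. GI50 is the concentration giving A540, as % of untreated control, midway between the plateaus.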

T1 sequence (P15056 whole entry V600E): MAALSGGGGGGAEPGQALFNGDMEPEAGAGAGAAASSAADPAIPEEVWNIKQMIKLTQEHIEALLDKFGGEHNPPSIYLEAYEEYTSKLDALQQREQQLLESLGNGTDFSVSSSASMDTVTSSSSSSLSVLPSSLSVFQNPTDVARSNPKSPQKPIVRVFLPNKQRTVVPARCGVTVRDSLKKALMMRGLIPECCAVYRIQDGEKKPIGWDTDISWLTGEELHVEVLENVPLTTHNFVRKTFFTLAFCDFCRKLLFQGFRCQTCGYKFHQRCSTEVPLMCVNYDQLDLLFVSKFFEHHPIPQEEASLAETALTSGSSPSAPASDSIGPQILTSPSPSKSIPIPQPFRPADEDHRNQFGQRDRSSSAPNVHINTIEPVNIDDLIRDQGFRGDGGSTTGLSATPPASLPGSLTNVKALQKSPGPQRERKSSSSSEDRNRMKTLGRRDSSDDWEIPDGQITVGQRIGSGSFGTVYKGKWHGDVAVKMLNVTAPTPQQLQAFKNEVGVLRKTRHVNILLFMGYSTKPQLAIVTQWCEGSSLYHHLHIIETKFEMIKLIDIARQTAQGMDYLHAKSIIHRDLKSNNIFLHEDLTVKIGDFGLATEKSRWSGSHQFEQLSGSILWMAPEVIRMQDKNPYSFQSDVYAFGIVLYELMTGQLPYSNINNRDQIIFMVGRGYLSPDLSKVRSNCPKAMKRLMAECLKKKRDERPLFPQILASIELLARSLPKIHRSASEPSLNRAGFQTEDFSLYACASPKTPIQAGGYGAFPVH

Q: O=C(Nc1ccc(Oc2ccnc3[nH]c(=O)cnc23)cc1F)Nc1cc(C(F)(F)F)ccc1-n1cccn1 [AA-094, 1-(2-(1H-pyrazol-1-yl)-5-(trifluoromethyl)phenyl)-3-(2-fluoro-4-(3-oxo-3,4-dihydropyrido[3,2-b]pyrazin-8-yloxy)phenyl)urea] was tested. Which IC50 [1] did it give?
A: < 100 nM

Q: And the IC50 [2]?
A: < 1000 nM

Q: What about the GI50 [3] of the same molecule?
A: 1000 to 10000 nM

Q: How did the IC50 [1] turn out when Cc1ccc(-n2nc(C(C)(C)C)cc2NC(=O)Nc2ccc(Oc3ccnc4[nH]c(=O)cnc34)c(F)c2)cc1 [AA-088, 1-(3-tert-butyl-1-p-tolyl-1H-pyrazol-5-yl)-3-(3-fluoro-4-(3-oxo-3,4-dihydropyrido[2,3-b]pyrazin-8-yloxy)phenyl)urea] was run?
A: < 100 nM

Q: And the IC50 [2]?
A: < 1000 nM

Q: And the GI50 [3]?
A: < 1000 nM

Q: How did the IC50 [1] turn out when COc1ccc(-n2nc(C(C)(C)C)cc2NC(=O)Nc2ccc(Oc3ccnc4[nH]c(=O)cnc34)cc2SC)cn1 [AA-063, 1-(3-tert-butyl-1-(6-methoxypyridin-3-yl)-1H-pyrazol-5-yl)-3-(2-(methylthio)-4-(3-oxo-3,4-dihydropyrido[2,3-b]pyrazin-8-yloxy)phenyl)urea] was run?
A: < 100 nM

Q: And the IC50 [2]?
A: < 1000 nM

Q: What about the GI50 [3] of the same molecule?
A: < 1000 nM

Q: Which IC50 [1] does the source give for CC(C)(C)c1cc(NC(=O)Nc2ccc(Oc3ccnc4[nH]c(=O)cnc34)cc2F)n(CC2CC2)n1 [AA-097, 1-(3-Tert-butyl-1-(cyclopropylmethyl)-1H-pyrazol-5-yl)-3-(2-fluoro-4-(3-oxo-3,4-dihydropyrido[3,2-b]pyrazin-8-yloxy)phenyl)urea] here?
A: < 100 nM

Q: What about the IC50 [2] of the same molecule?
A: < 1000 nM

Q: And the GI50 [3]?
A: 1000 to 10000 nM

Q: Which IC50 [1] does the source give for Cc1ccc(-n2nc(C(C)(C)C)cc2NC(=O)Nc2ccc(Oc3ccnc4[nH]c(=O)c(N)nc34)cc2F)cc1 [AA-057, 1-(4-(2-amino-3-oxo-3,4-dihydropyrido[2,3-b]pyrazin-8-yloxy)-2-fluorophenyl)-3-(3-tert-butyl-1-p-tolyl-1H-pyrazol-5-yl)urea] here?
A: 100 to 1000 nM

Q: What about the IC50 [2] of the same molecule?
A: < 1000 nM

Q: And the GI50 [3]?
A: < 1000 nM

Q: What does the source list for Cc1ccc(-n2nc(C(C)(C)C)cc2NC(=O)Nc2ccc(Oc3ccnc4[nH]c(=O)cnc34)cc2F)cn1 [AA-084, 1-(3-tert-butyl-1-(6-methylpyridin-3-yl)-1H-pyrazol-5-yl)-3-(2-fluoro-4-(3-oxo-3,4-dihydropyrido[3,2-b]pyrazin-8-yloxy)phenyl)urea]?
A: IC50 [1]: 100 to 1000 nM; IC50 [2]: < 1000 nM; GI50 [3]: < 1000 nM

Q: Nc1nc2nccc(Oc3ccc(NC(=O)Nc4cc(C(F)(F)F)ccc4F)c4ccccc34)c2[nH]c1=O [AA-079, 1-(4-(3-amino-2-oxo-1,2-dihydropyrido[2,3-b]pyrazin-8-yloxy)naphthalen-1-yl)-3-(2-fluoro-5-(trifluoromethyl)phenyl)urea] was tested. Which IC50 [1] did it give?
A: < 100 nM

Q: And the IC50 [2]?
A: < 1000 nM

Q: And the GI50 [3]?
A: < 1000 nM

Q: How did the IC50 [1] turn out when O=C(Nc1ccc(Oc2ccnc3[nH]c(=O)cnc23)cc1F)Nc1cc(C(F)(F)F)ccc1Oc1cccnc1 [AA-093, 1-(2-fluoro-4-(3-oxo-3,4-dihydropyrido[3,2-b]pyrazin-8-yloxy)phenyl)-3-(2-(pyridin-3-yloxy)-5-(trifluoromethyl)phenyl)urea] was run?
A: < 100 nM

Q: What about the IC50 [2] of the same molecule?
A: < 1000 nM

Q: And the GI50 [3]?
A: 1000 to 10000 nM

Q: Which IC50 [1] does the source give for CSc1cc(Oc2ccnc3[nH]c(=O)c(C)nc23)ccc1NC(=O)Nc1cc(C(F)(F)F)ccc1F [AA-060, 1-(2-fluoro-5-(trifluoromethyl)phenyl)-3-(4-(2-methyl-3-oxo-3,4-dihydropyrido[2,3-b]pyrazin-8-yloxy)-2-(methylthio)phenyl)urea] here?
A: < 100 nM

Q: And the IC50 [2]?
A: < 1000 nM

Q: And the GI50 [3]?
A: < 1000 nM

Q: Which results are given for CC(C)(C)c1cc(NC(=O)Nc2ccc(Oc3ccnc4[nH]c(=O)cnc34)cc2F)n(-c2ccc(S(C)(=O)=O)cc2)n1 [AA-090, 1-(3-tert-butyl-1-(4-(methylsulfonyl)phenyl)-1H-pyrazol-5-yl)-3-(2-fluoro-4-(3-oxo-3,4-dihydropyrido[3,2-b]pyrazin-8-yloxy)phenyl)urea]?
A: IC50 [1]: 100 to 1000 nM; IC50 [2]: < 1000 nM; GI50 [3]: < 1000 nM

Q: What does the source list for CC(C)(C)c1cc(NC(=O)Nc2ccc(Oc3ccnc4ncc(=O)[nH]c34)cc2F)n(-c2ccccc2)n1 [AA-089, 1-(3-tert-butyl-1-phenyl-1H-pyrazol-5-yl)-3-(2-fluoro-4-(2-oxo-1,2-dihydropyrido[3,2-b]pyrazin-8-yloxy)phenyl)urea]?
A: IC50 [1]: 100 to 1000 nM; IC50 [2]: < 1000 nM; GI50 [3]: < 1000 nM
